Experimental data published in patent US20230079819A1, “COMPOUNDS AND USES THEREOF” (Foghorn Therapeutics Inc., priority 2019, published 2023).

What was measured:
BRG-1 = target: T1, BRG-1 (Homo sapiens, UniProt P51532); experiment: ATPase catalytic activity of BRG-1, ADP-Glo in vitro biochemical assay; conditions: ATPase catalytic activity, 30 nM BRG-1, 400 μM ATP, read-out: BRG1 IP50
T1 construct: made in house; host or cells: High Five insect cells

BRM = target: T2, BRM (Homo sapiens, UniProt P51531); experiment: ATPase catalytic activity of BRM, ADP-Glo in vitro biochemical assay; conditions: ATPase catalytic activity, 30 nM BRM, 400 μM ATP, read-out: BRM IP50
T2 construct: made in house; host or cells: High Five insect cells
T2 sequence (P51531 whole entry): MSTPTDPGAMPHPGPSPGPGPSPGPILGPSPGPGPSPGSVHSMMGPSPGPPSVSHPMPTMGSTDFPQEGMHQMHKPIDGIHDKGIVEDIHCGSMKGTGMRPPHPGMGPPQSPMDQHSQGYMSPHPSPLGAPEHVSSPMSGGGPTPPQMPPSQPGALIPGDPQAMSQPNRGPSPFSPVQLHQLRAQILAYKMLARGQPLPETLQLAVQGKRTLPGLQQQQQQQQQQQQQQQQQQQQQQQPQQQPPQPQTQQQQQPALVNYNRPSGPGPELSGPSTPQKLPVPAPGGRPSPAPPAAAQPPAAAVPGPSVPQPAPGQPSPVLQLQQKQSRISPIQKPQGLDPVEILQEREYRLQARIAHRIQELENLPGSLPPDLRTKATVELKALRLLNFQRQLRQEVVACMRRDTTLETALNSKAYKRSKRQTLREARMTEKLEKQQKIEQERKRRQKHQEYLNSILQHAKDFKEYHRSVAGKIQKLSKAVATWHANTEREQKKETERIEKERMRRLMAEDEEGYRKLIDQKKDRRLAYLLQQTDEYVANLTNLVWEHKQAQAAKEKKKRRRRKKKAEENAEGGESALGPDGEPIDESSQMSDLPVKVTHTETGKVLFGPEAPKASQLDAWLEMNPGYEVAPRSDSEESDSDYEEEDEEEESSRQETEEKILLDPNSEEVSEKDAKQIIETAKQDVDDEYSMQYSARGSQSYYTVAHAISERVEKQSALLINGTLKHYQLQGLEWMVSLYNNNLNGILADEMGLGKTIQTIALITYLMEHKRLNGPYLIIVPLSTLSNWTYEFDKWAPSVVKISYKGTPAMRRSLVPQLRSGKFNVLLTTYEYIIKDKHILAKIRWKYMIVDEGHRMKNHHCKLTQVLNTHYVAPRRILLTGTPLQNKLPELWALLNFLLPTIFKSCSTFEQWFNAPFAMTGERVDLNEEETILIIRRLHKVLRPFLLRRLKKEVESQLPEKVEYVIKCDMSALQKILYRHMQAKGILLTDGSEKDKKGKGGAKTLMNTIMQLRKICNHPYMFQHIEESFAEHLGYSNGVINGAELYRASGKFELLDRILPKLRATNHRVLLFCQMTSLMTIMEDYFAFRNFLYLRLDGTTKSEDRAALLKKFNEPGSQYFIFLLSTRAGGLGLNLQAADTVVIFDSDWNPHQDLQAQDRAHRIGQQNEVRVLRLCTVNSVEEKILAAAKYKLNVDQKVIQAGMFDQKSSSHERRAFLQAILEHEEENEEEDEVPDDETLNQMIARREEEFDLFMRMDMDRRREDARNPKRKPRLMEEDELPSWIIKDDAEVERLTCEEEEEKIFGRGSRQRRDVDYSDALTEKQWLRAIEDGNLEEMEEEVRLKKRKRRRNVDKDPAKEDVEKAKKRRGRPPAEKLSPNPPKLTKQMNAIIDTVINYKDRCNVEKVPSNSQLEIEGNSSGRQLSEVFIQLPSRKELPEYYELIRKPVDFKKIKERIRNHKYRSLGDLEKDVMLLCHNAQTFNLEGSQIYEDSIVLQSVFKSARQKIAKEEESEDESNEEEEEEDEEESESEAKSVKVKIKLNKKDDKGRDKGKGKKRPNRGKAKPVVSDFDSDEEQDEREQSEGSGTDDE

T1 sequence (P51532 whole entry): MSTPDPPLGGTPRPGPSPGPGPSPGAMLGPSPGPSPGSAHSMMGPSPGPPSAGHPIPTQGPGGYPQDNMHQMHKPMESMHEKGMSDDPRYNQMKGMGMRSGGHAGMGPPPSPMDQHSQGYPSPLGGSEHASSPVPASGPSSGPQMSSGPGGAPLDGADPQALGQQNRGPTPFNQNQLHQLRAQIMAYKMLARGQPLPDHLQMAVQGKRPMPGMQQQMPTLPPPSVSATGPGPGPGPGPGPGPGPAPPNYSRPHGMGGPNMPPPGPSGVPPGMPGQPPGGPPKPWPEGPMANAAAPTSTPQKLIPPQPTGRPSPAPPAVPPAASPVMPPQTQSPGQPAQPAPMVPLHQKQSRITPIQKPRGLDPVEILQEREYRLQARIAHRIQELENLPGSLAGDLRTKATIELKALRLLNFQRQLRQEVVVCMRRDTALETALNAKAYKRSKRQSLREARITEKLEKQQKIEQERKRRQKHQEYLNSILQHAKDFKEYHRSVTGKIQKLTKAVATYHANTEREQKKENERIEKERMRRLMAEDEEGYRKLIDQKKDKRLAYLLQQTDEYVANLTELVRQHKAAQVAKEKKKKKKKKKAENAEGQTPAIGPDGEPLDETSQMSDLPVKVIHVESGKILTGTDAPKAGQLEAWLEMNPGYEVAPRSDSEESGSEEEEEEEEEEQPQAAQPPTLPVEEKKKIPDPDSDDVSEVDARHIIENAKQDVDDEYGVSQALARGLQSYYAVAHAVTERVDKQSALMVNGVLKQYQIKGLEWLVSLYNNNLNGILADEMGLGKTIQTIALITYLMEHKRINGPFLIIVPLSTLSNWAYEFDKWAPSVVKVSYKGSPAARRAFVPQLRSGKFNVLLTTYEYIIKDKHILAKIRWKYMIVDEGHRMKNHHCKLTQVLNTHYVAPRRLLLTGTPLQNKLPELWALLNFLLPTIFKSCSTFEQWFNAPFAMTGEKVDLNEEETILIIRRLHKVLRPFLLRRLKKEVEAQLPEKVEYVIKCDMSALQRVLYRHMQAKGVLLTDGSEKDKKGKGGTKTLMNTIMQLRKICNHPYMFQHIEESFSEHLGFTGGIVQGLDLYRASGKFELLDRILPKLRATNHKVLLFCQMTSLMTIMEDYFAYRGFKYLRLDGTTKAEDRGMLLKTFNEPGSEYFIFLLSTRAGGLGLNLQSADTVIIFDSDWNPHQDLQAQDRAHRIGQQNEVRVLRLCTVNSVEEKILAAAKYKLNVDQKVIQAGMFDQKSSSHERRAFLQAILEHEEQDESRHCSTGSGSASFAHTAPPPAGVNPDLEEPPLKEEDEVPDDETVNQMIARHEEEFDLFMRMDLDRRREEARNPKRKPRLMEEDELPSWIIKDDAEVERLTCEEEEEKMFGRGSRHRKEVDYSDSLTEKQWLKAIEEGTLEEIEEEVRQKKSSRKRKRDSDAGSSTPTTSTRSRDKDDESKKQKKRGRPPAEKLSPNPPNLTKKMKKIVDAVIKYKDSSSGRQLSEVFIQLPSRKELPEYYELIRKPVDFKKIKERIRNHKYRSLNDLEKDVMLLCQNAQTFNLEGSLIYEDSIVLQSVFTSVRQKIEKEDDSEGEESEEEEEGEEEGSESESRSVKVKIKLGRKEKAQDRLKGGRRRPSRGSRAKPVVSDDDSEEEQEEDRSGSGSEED

IC50 (BRG-1) [nM]	IC50 (BRM) [nM]	Structure (SMILES)
> 10	> 10	CN1CCc2c(F)ccc(-c3csc(NC(=O)CNC(=O)c4ccn(S(C)(=O)=O)c4)n3)c21 [Compound 565]
> 10	> 10	COCC[C@H](NC(=O)c1ccn(C(C)(C)C)c1)C(=O)Nc1nc(-c2ccc3ccn(C)c(=O)c3c2)cs1 [Compound 567]
> 10	> 10	COC[C@H](NC(=O)c1ccn(C2(C#N)CC2)c1)C(=O)Nc1nc(-c2cccc(-c3ccn(C)n3)c2)cs1 [Compound 568]
< 10	< 10	CN1CCc2c(F)cc(-c3csc(NC(=O)CNC(=O)c4ccn(S(C)(=O)=O)c4)n3)cc21 [Compound 569]
> 10	< 10	CC(C)(C#N)n1ccc(C(=O)NCC(=O)Nc2nc(-c3cc(F)c4c(c3)OCC4)cs2)c1 [Compound 571]
> 10	> 10	COC[C@H](NC(=O)c1ccn(C2(C)COC2)c1)C(=O)Nc1nc(-c2cccc(-c3ccn(C)n3)c2)cs1 [Compound 572]
> 10	> 10	COC[C@H](NC(=O)c1ccn(S(C)(=O)=O)c1)C(=O)Nc1nc(-c2cccc(N3CCC3)c2F)cs1 [Compound 573]
> 10	> 10	CS(=O)(=O)n1ccc(C(=O)NCC(=O)Nc2nc(-c3ccc4c(c3)OCO4)cs2)c1 [Compound 574]
> 10	> 10	CS(=O)(=O)n1ccc(C(=O)NCC(=O)Nc2nc(-c3cccc([C@@H]4CC4(F)F)c3)cs2)c1 [Compound 575]
> 10	< 10	CS(=O)(=O)n1ccc(C(=O)NCC(=O)Nc2nc(-c3cccc([C@H]4CC4(F)F)c3)cs2)c1 [Compound 576]
> 100	> 10	COC(=O)N1CCC[C@@H](c2csc(NC(=O)CNC(=O)c3ccn(S(C)(=O)=O)c3)n2)C1 [Compound 578]
> 100	> 100	COC(=O)N1CCC[C@H](c2csc(NC(=O)CNC(=O)c3ccn(S(C)(=O)=O)c3)n2)C1 [Compound 579]
> 100	> 100	COC(=O)N1CCC[C@@H](c2csc(NC(=O)CNC(=O)c3ccn(C(C)(C)C)c3)n2)C1 [Compound 580]
> 100	> 100	COC(=O)N1CCC[C@H](c2csc(NC(=O)CNC(=O)c3ccn(C(C)(C)C)c3)n2)C1 [Compound 581]
> 10	> 10	COC[C@H](NC(=O)c1ccn(C(C)(C)C)c1)C(=O)Nc1nc(-c2ccc3ccn(C(F)F)c(=O)c3c2)cs1 [Compound 583]
< 10	< 10	COC[C@H](NC(=O)c1ccn(C(C)(C)C#N)c1)C(=O)Nc1nc(-c2ccc3ccn(C)c(=O)c3c2)cs1 [Compound 584]
> 10	< 10	CS(=O)(=O)n1ccc(C(=O)NCC(=O)Nc2nc(-c3cccc(N4CC[C@H](C(F)F)C4)c3)cs2)c1 [Compound 585]
> 10	> 10	CS(=O)(=O)n1ccc(C(=O)NCC(=O)Nc2nc(-c3cccc(N4CC[C@@H](C(F)F)C4)c3)cs2)c1 [Compound 586]
> 100	> 10	C[C@H](NC(=O)c1ccn(C2(C#N)CC2)c1)C(=O)Nc1nc(-c2cccc(-c3ccn(C)n3)c2)cs1 [Compound 588]

IC50 (BRG-1) [nM]	IC50 (BRM) [nM]	Structure (SMILES)
> 100	> 10	C[C@H](NC(=O)c1ccn(C2(C)COC2)c1)C(=O)Nc1nc(-c2cccc(-c3ccn(C)n3)c2)cs1 [Compound 589]
> 10	> 10	CN1CCOc2ccc(-c3csc(NC(=O)CNC(=O)c4ccn(C(C)(C)C#N)c4)n3)cc21 [Compound 590]
> 10	> 10	C[C@H](NC(=O)c1ccn(S(C)(=O)=O)c1)C(=O)Nc1nc(-c2cccc(-c3ccn(C)n3)c2)cs1 [Compound 591]
> 10	> 10	COC[C@H](NC(=O)c1ccn(S(C)(=O)=O)c1)C(=O)Nc1nc(-c2ccc(F)c(OC(F)(F)F)c2)cs1 [Compound 592]
> 10	> 10	COC[C@H](NC(=O)c1ccn(S(C)(=O)=O)c1)C(=O)Nc1nc(-c2cc(F)cc(OC(F)(F)F)c2)cs1 [Compound 593]
> 10	> 10	N#CC1(n2ccc(C(=O)NCC(=O)Nc3nc(-c4cccc(N5CCC5)n4)cs3)c2)COC1 [Compound 595]
> 10	< 10	COC[C@H](NC(=O)c1ccn(S(C)(=O)=O)c1)C(=O)Nc1nc(-c2ccc3c(c2)OCO3)cs1 [Compound 596]
> 10	> 10	COC[C@H](NC(=O)c1ccn(S(C)(=O)=O)c1)C(=O)Nc1nc(-c2cccc([C@@H]3CC3(F)F)c2)cs1 [Compound 598]
> 10	> 10	COC[C@H](NC(=O)c1ccn(S(C)(=O)=O)c1)C(=O)Nc1nc(-c2cccc([C@H]3CC3(F)F)c2)cs1 [Compound 599]
< 10	< 10	C[C@@H]1CN(c2cccc(-c3csc(NC(=O)[C@H](C)NC(=O)c4ccn(C5(C#N)COC5)c4)n3)n2)C[C@H](C)O1 [Compound 600]
> 10	< 10	N#CC1(n2ccc(C(=O)NCC(=O)Nc3nc(-c4cccc(N5CCC5)c4)cs3)c2)COC1 [Compound 601]
< 10	< 10	C[C@@H]1CN(c2cccc(-c3csc(NC(=O)CNC(=O)c4ccn(C5(C#N)COC5)c4)n3)n2)C[C@H](C)O1 [Compound 602]
< 10	< 10	COC[C@H](NC(=O)c1ccn(C(C)(C)C)c1)C(=O)Nc1nc(-c2ccc3ccn(C4COC4)c(=O)c3c2)cs1 [Compound 603]
> 100	> 10	CCO[C@H](NC(=O)c1ccn(S(C)(=O)=O)c1)C(=O)Nc1nc(-c2cccc([C@H]3CC3(F)F)n2)cs1 [Compound 606]
> 10	> 10	CS(=O)(=O)n1ccc(C(=O)NCC(=O)Nc2nc(-c3cc(Cl)c4c(c3)OCO4)cs2)c1 [Compound 607]
> 100	> 10	CS(=O)(=O)n1ccc(C(=O)NCC(=O)Nc2nc(-c3cccc([C@@H]4CC4(F)F)n3)cs2)c1 [Compound 608]
> 10	> 10	CS(=O)(=O)n1ccc(C(=O)NCC(=O)Nc2nc(-c3cccc([C@H]4CC4(F)F)n3)cs2)c1 [Compound 609]
> 10	> 10	COC[C@H](NC(=O)c1ccn(S(C)(=O)=O)c1)C(=O)Nc1nc(-c2cc(F)cc(OC3CC3)c2)cs1 [Compound 610]
> 10	> 10	COC[C@H](NC(=O)c1ccn(C(C)(C)C)c1)C(=O)Nc1nc(-c2cnc3ccn(C)c(=O)c3c2)cs1 [Compound 611]

IC50 (BRG-1) [nM]	IC50 (BRM) [nM]	Structure (SMILES)
> 10	> 10	CS(=O)(=O)n1ccc(C(=O)NCC(=O)Nc2nc(-c3ccc(F)c(OC4CC4)c3F)cs2)c1 [Compound 612]
> 100	> 10	COC[C@H](NC(=O)c1ccn(S(C)(=O)=O)c1)C(=O)Nc1nc(-c2ccc(F)c(OC3CC3)c2F)cs1 [Compound 613]
> 10	> 10	CS(=O)(=O)n1ccc(C(=O)NCC(=O)Nc2nc(-c3ccc(F)c(OC4CC4)n3)cs2)c1 [Compound 614]
< 10	< 10	COC[C@H](NC(=O)c1ccn(C(C)(C)C#N)c1)C(=O)Nc1nc(-c2cccc(-c3cnn(C)n3)c2)cs1 [Compound 615]
< 10	< 10	CS(=O)(=O)n1ccc(C(=O)NCC(=O)Nc2nc(-c3cc(F)c4c(c3)OCO4)cs2)c1 [Compound 616]
> 100	> 10	COC[C@H](NC(=O)c1ccn(S(C)(=O)=O)c1)C(=O)Nc1nc(-c2cc(Cl)c3c(c2)OCO3)cs1 [Compound 617]
> 10	> 10	CC(C)(C)n1ccc(C(=O)NCC(=O)Nc2nc(-c3cccc(N4CCC(C(F)F)C4)n3)cs2)c1 (stereo not drawn) [Compound 618]
> 10	< 10	CS(=O)(=O)n1ccc(C(=O)NCC(=O)Nc2nc(-c3ccc4c(c3)CCO4)cs2)c1 [Compound 619]
> 10	> 10	CC(C)(C)n1ccc(C(=O)NCC(=O)Nc2nc(-c3cccc(N4CCC5(COC5)C4)n3)cs2)c1 [Compound 620]
> 100	> 100	C[C@@H]1CN(c2cccc(-c3csc(NC(=O)CNC(=O)c4ccn([C@@]5(C)CC5(F)F)c4)n3)n2)C[C@H](C)O1 [Compound 621]
> 10	< 10	C[C@@H]1CN(c2cccc(-c3csc(NC(=O)CNC(=O)c4ccn([C@]5(C)CC5(F)F)c4)n3)n2)C[C@H](C)O1 [Compound 622]
> 100	> 100	CN(C)[C@H]1CCN(c2cccc(-c3csc(NC(=O)CNC(=O)c4ccn(C(C)(C)C)c4)n3)n2)C1 [Compound 623]
> 100	> 100	CC(C)(C)n1ccc(C(=O)NCC(=O)Nc2nc(-c3cccc(N4CCC5(CCOCC5)C4)n3)cs2)c1 [Compound 624]
> 100	> 100	CC1CN(c2cccc(-c3csc(NC(=O)CNC(=O)c4ccn(C(C)(C)C)c4)n3)n2)C1 [Compound 625]
> 100	> 100	CC(C)(C)n1ccc(C(=O)NCC(=O)Nc2nc(-c3cccc(N4CCC5(CCOC5)CC4)n3)cs2)c1 [Compound 626]
> 100	> 10	CC(C)(C)n1ccc(C(=O)NCC(=O)Nc2nc(-c3cccc(N4CCN(c5cccnn5)CC4)n3)cs2)c1 [Compound 627]
> 100	> 100	CC(C)(C)n1ccc(C(=O)NCC(=O)Nc2nc(-c3cccc(N4CCC5(CC4)CC(F)C5)n3)cs2)c1 [Compound 628]
> 100	> 100	CC(C)(C)n1ccc(C(=O)NCC(=O)Nc2nc(-c3cccc(N4CC(N5CCS(=O)(=O)CC5)C4)n3)cs2)c1 [Compound 629]
> 10	> 10	Cc1nnc(C2CCN(c3cccc(-c4csc(NC(=O)CNC(=O)c5ccn(C(C)(C)C)c5)n4)n3)CC2)o1 [Compound 630]
